These results are taken from paper PMC9731865, “Gambogic acid and juglone inhibit RNase P through distinct mechanisms” (The Journal of Biological Chemistry, 2022).

Read-outs that look alike come from different tables or passages of the source.

This experiment concerns the target T1, A. thaliana PRORP1 (Arabidopsis thaliana, UniProt Q66GI4).
T1 construct: made in house
T1 sequence (Q66GI4 77-572): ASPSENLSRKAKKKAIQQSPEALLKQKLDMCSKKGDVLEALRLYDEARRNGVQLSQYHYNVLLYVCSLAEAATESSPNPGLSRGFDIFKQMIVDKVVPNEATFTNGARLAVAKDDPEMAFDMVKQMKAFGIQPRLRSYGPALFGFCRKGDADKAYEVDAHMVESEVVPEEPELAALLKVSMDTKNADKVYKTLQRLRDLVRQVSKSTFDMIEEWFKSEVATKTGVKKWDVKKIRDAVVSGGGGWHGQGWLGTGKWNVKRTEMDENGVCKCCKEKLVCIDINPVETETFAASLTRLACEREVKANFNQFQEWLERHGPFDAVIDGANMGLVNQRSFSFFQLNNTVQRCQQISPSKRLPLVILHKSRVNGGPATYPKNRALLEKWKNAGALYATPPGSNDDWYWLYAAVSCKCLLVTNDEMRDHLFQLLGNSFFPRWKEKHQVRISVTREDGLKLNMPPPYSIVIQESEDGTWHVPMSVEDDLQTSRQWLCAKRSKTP
As to the kind of experiment: FP cleavage assay, PRORP1 dose response. In kind it is biochemical. The following applies: for activity at 6.25 µM: read-out: PRORP1 Activity (%). As to the method:
Compounds gambogic acid (A) and juglone (B) were incubated with enzyme at double the reaction concentration for 30 min prior to the addition of an equal volume of substrate to initiate the reaction. PRORP1 reactions (shown in green) were performed with 0.3 nM PRORP1 and 800 nM pre-tRNA containing 40 nM Fl-pre-tRNA at 25 °C in 30 mM MOPS pH 7.8, 5 mM MgCl2, 100 mM NaCl, 1 mM TCEP, 500 nM (12 μg/ml) yeast tRNA, 5 mM spermidine, 6.65 μg/ml BSA, and 0.01% NP-40. MRPP1/2/3 reactions (shown in red) were performed using 50 nM MRPP3, 500 nM MRPP1/2, 500 nM pre-tRNA containing 40 nM Fl-pre-tRNA at 37 °C in 50 mM MOPS (pH 7.8), 1 mM TCEP, 4.5 mM MgCl2, and 100 mM NaCl. B. subtilis RNase P reactions (shown in blue) were performed using 20 nM RNase P and 500 nM pre-tRNA containing 40 nM Fl-pre-tRNA at 37 °C in 50 mM Tris, pH 7.2, 5 mM MgCl2, 100 mM KCl, 500 nM (12 μg/ml) yeast tRNA, 20 mM dithiothreitol (DTT), 10 mM spermidine, and 0.01% NP-40. Equation 1 was fit to each dataset.
The activity of PRORP1 catalyzed pre-tRNA cleavage was measured by monitoring the fluorescence anisotropy (FA) signal (λex = 485 nm and λem = 535 nm) over time at 25 °C in buffer conditions optimized for a high-throughput format, 30 mM MOPS pH 7.8, 5 mM MgCl2, 100 mM NaCl, 1 mM TCEP, 500 nM (12 μg/ml) yeast tRNA, 5 mM spermidine, 6.65 μg/ml BSA, and 0.01% NP-40. Yeast tRNA^mix (Roche) was used to reduce the number of compounds that inhibit PRORP1 activity by targeting tRNA. Prior to each reaction, pre-tRNA was heated for 3 min at 95 °C to unfold the RNA and refolded in the reaction buffer at room temperature (25 °C) for 30 min. Reactions were performed in black, 96-well plates (Corning Incorporation, #3686) using a TECAN plate-reader (Infinite F500, G-factor = 1.05) at 25 °C, and the FA values recorded. Reactions were initiated with the addition of substrate to enzyme. Experiments were done in the presence of excess substrate. The concentration of enzyme was 0.3 to 5 nM, the concentration of labeled substrate (Fl-pre-tRNA) was 40 nM, and the concentration of pre-tRNA was 120 to 4000 nM. The concentration of Fl-pre-tRNA was held constant in all reactions.
The dose response was measured using the FP assay as described above with varying concentrations of compound. Compounds were incubated with PRORP1 at twice the reaction concentration for 30 min prior to the addition of equal volumes of substrate to initiate the reaction. Experiments were done under multiple turnover conditions (same buffer conditions as the FP assay). […] PRORP1 activity was determined as a function of inhibitor concentration, and Equation 1 was fit to the data to determine the IC50 value. The standard error of the mean (SEM) is reported from the fit.(1) Activity(%)=100/1+([I]/IC50)^n

Where [1] appears, read: 6.25 μM of inhibitor, FP cleavage assay.

With `CC(=O)O[C@@H]1C[C@@]2(C)[C@H](c3ccoc3)C[C@H]3O[C@]32[C@]2(C)C(=O)C(O)=C3C(C)(C)C(=O)C=C[C@]3(C)[C@@H]12` [anthothecol], under setting [1], the activity at 6.25 µM is 15.5%.
On the same count and under the same terms, as for `O=C(O)C1=CC(=C(c2ccc(O)c(C(=O)O)c2)c2ccc(O)c(C(=O)O)c2)C=CC1=O` [aurintricarboxylic acid], the figure is 46.5%; as for `O=C1C(Cl)=C(Cl)C(=O)C(Cl)=C1Cl` [chloranil], 40.2%; as for `Cc1cc(-c2ccc(/N=N/c3ccc4c(S(=O)(=O)O)cc(S(=O)(=O)O)c(N)c4c3O)c(C)c2)ccc1/N=N/c1ccc2c(S(=O)(=O)O)cc(S(=O)(=O)O)c(N)c2c1O` [evans blue], 20.2%.
In the case of `CN(C)c1ccc(C(=C2C=CC(=[N+](C)C)C=C2)c2ccc(N(C)C)cc2)cc1` [gentian violet], the activity at 6.25 µM under setting [1] is 0%.
With `COC(=O)/C(C)=C\C[C@@]12OC(C)(C)[C@@H]3C[C@@H](C=C4C(=O)c5c(O)c6c(c(CC=C(C)C)c5O[C@]431)O[C@](C)(CCC=C(C)C)C=C6)C2=O` [methyl gambogate], the activity at 6.25 µM turned out to be 34.8%.
For `CC(=O)[O][Hg][c]1ccccc1` [phenylmercuric acetate], the “PRORP1 Activity (%)” value under setting [1] was 32.2%.
As to `CC1=CC(=O)c2c(O)cccc2C1=O` [plumbagin], under setting [1], the activity at 6.25 µM stood at 2.6%.
